{"source": "paper PMC3482425", "about": "(Journal of medicinal chemistry, 2012)", "key": {"LSD1": {"system": "LSD1", "settings": "read-out: IC50 (LSD1 inhibitor); cited from earlier work"}, "[1]": {"system": "SFRP2 in Calu-6 anaplastic epithelial lung carcinoma cells", "assay": "Re-expression of SFRP2 in Calu-6 cells", "format": "cell-based, human", "settings": "24 or 48 hours"}, "[2]": {"system": "global H3K4me2 levels in Calu-6 human lung adenocarcinoma cells", "assay": "cells", "settings": "Calu-6, 48 h, read-out: H3K4me2 Fold Increase (48 h), 10 μM, Calu-6 cells"}, "[3]": {"system": "H3K4me1 levels in Calu-6 human lung adenocarcinoma cell line", "assay": "Global H3K4me1 levels in Calu-6 cells", "format": "cell-based", "settings": "at both 24 and 48 hours"}, "[4]": {"system": "global H3K4me2 levels in Calu-6 human lung adenocarcinoma cells", "settings": "time point not stated"}, "[5]": {"system": "HCAD in Calu-6 anaplastic epithelial lung carcinoma cells", "assay": "Re-expression of HCAD in Calu-6 cells", "format": "cell-based, human", "settings": "10 μM"}}, "data": [{"compound": "N[C@H]1C[C@@H]1c1cccc(OCC[C@H](NC(=O)c2ccccc2)C(=O)NCc2ccccc2)c1", "note": "[(1S, 2R)-NCL-1]", "values": [{"measurement": "IC50", "setting": "LSD1", "result": "[…]"}]}, {"compound": "N=C(N)NN", "note": "[Aminoguanidine]", "values": [{"measurement": "effect on SFRP2 levels", "setting": "[1]; 1 mM", "result": "no effect"}]}, {"compound": "N=C(NCCCNCCCCCCCNCCCNC(=N)NC(=N)NCCC(c1ccccc1)c1ccccc1)NC(=N)NCCC(c1ccccc1)c1ccccc1", "note": "[Compound 2d, (bis)-3,3-(diphenyl)propylbiguanide, reference compound]", "values": [{"measurement": "fold induction at 10 µM", "setting": "[2]", "result": 5}]}, {"compound": "Cl.N=C(N)SCCN1C(=O)c2ccccc2C1=O", "note": "[Compound 5, 2-[N-(phthalimido)]ethyl carbamimidothioate hydrochloride]", "values": [{"measurement": "Increases in H3K4me1 levels", "setting": "[3]", "result": "unremarkable"}]}, {"compound": "Cl.Cl.NCCNc1c([N+](=O)[O-])cc(C(F)(F)F)cc1[N+](=O)[O-]", "note": "[Compound 6]", "values": [{"measurement": "Increases in H3K4me1 levels", "setting": "[3]", "result": "unremarkable"}, {"measurement": "changes in H3K4 / lysine methylation in the Calu-6 cell line", "setting": "[4]", "result": "no effect"}]}, {"compound": "Cl.N=C(N)SCCCN1C(=O)c2ccccc2C1=O", "note": "[Compound 8]", "values": [{"measurement": "Increases in H3K4me1 levels", "setting": "[3]", "result": "unremarkable"}]}, {"compound": "Cl.N=C(N)SCCCCN1C(=O)c2ccccc2C1=O", "note": "[Compound 9]", "values": [{"measurement": "Increases in H3K4me1 levels", "setting": "[3]", "result": "unremarkable"}]}, {"compound": "CCNCCCCNCCCCNCCCCNCCCCNC/C=C/CNCCCCNCCCCNCCCCNCCCCNCC", "note": "[PG11144]", "values": [{"measurement": "effect on SFRP2 levels", "setting": "[1]; 5 μM", "result": "no effect"}, {"measurement": "fold increase in HCAD expression, 24 hours", "setting": "[5]", "result": 1.47, "unit": "fold"}]}]}
